In patent US9000191B2, “Serotonin reuptake inhibitors” (Theravance Biopharma R&D IP, LLC, priority 2010, dated 2015):

The molecules below were run against T1, hSERT (Homo sapiens, UniProt P31645) (assay: hSERT neurotransmitter uptake assay). Details: serotonin reuptake inhibition, HEK293-hSERT cells; read-out: SERT pIC50 (converted).
T1 construct: expressed in transfected cells; host or cells: HEK293 (stably transfected, G418 selection)
Assay type: cell-based
Description: Neurotransmitter uptake assays were used to measure inhibition of ^3H-serotonin (^3H-5-HT) uptake into cells expressing hSERT in order to determine the pIC50 values of test compounds at the transporter, similar to the procedures described in Tsuruda et al. (2010) Journal of Pharmacological and Toxicological Methods 61(2):192-204.
HEK293 cells stably-transfected with human recombinant SERT (HEK293-hSERT) were grown in DMEM medium supplemented with 10% dialyzed fetal bovine serum, 100 μg/ml penicillin, 100 μg/ml streptomycin, 2 mM L-glutamine, and 250 μg/ml of the aminoglycoside antibiotic G418. Cells were incubated in a 5% CO2, humidified incubator at 37° C.
The neurotransmitter uptake assay was performed in a 96-well assay plate in a total volume of 100 μL assay buffer containing HEK293-hSERT cells (7500-10,000 cells/well; plated ˜2 hours prior to assay initiation. Neurotransmitter Transporter Uptake Assay dye (0.5 μM), and eleven different concentrations of compound ranging from 10 μM to […] was used. Non-specific uptake was determined in the presence of indatraline (2.5 μM). The final assay buffer was 12.5 mM Tris-HCl, 5 mM HEPES, 3 mM NaHCO3, 0.3 mM KH2PO4, 0.25 mM Na2HPO4, 130 mM NaCl, 5 mM KCl, 1 mM CaCl2, 0.4 mM MgCl2, 0.3 mM MgSO4, 4 mM D-glucose, 0.025% BSA, 0.1 mM ascorbic acid, pH 7.4.
In pre-incubation studies, test compound was added to cells for 30 minutes at 37° C. prior to the addition of fluorescent substrate. For determination of inhibitory potency, a 10-30 minute endpoint substrate accumulation was determined by fluorescence spectroscopy using a Safire (Tecan Group Ltd., Minnendorf, Switzerland) and analysis was performed as described in Tsuruda et al., supra. For real-time measurements, compounds were either preincubated (as above) or mixed with substrate prior to addition, and kinetic measurements, relative fluorescence units (RFU integrated over 0.5 ms), were made using a cycle time of 1 min.

T1 sequence (P31645 whole entry): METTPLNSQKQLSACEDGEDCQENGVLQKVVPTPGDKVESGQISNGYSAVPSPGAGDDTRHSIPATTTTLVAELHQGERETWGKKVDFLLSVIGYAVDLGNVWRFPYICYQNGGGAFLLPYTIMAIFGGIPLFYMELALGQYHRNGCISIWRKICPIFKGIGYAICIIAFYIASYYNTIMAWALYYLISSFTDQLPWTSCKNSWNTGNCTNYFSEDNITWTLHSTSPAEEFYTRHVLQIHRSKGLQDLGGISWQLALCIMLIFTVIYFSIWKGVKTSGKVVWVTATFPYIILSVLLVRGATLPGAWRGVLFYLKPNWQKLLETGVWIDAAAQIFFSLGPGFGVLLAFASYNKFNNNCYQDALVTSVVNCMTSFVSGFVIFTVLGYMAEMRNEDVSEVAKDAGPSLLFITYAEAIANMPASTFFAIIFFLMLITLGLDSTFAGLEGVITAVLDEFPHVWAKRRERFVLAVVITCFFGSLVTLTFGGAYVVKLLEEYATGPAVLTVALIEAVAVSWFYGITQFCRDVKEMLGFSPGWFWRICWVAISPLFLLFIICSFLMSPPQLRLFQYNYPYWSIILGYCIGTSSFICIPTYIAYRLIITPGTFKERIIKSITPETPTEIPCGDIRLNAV

Row | IC50 [nM] | SMILES
1 | ≤ 10 | CC(C)S(=O)(=O)C[C@@H](Oc1ccc(C(F)(F)F)cc1)[C@H]1CCNC1 [Example 2-13, (S)-3-[(S)-2-(Propane-2-sulfonyl)-1-(4-trifluoromethylphenoxy)ethyl]pyrrolidine]
2 | ≤ 10 | CS(=O)(=O)C[C@@H](Oc1ccc(OC(F)(F)F)cc1)[C@@H]1CCNC1 [Example 2-11, (R)-3-[(S)-2-Methanesulfonyl-1-(4-trifluoromethoxyphenoxy)ethyl]pyrrolidine]
3 | ≤ 10 | CS(=O)(=O)C[C@H](Oc1ccc(C(F)(F)F)cc1)[C@H]1CCNC1 [Example 2-1, (S)-3-[(R)-2-Methanesulfonyl-1-(4-trifluoromethylphenoxy)ethyl]pyrrolidine]
4 | ≤ 100 | CS(=O)(=O)C[C@@H](Oc1ccc(OC(F)(F)F)cc1)[C@H]1CCNC1 [Example 2-9, (S)-3-[(S)-2-Methanesulfonyl-1-(4-trifluoromethoxyphenoxy)ethyl]pyrrolidine]
5 | ≤ 100 | COc1cc([N+](=O)[O-])ccc1O[C@@H](CS(C)(=O)=O)[C@H]1CCNC1 [Example 2-25, (S)-3-[(R)-2-Methanesulfonyl-1-(2-methoxy-4-nitrophenoxy)ethyl]pyrrolidine]
6 | ≤ 10 | CS(=O)(=O)C[C@@H](Oc1ccc(C(F)(F)F)cn1)[C@H]1CCNC1 [Example 4-3, 2-((S)-2-Methanesulfonyl-1-(S)-pyrrolidin-3-yl-ethoxy)-5-trifluoromethyl-pyridine]
7 | ≤ 10 | CS(=O)(=O)C[C@H](Oc1ccc(Cl)c(C#N)c1)[C@H]1CCNC1 (stereo in doubt) [Example 2-24, 2-Chloro-5-((S)-2-methanesulfonyl-1-(R)-pyrrolidin-3-ylethoxy)benzonitrile]
8 | ≤ 10 | CCS(=O)(=O)C[C@@H](Oc1ccc(C(F)(F)F)cc1)[C@H]1CCNC1 [Example 2-12, (S)-3-[(S)-2-Ethanesulfonyl-1-(4-trifluoromethyl-phenoxy)ethyl]pyrrolidine]
9 | ≤ 10 | CS(=O)(=O)C[C@@H](Oc1ccc(Cl)c(C#N)c1)[C@H]1CCNC1 [Example 2-22, 2-Chloro-5-((S)-2-methanesulfonyl-1-(S)-pyrrolidin-3-ylethoxy)benzonitrile]
10 | ≤ 10 | O=S(=O)(CCO)C[C@@H](Oc1ccc(C(F)(F)F)cc1)[C@H]1CCNC1 [Example 2-15, 2-[(S)-2-(S)-Pyrrolidin-3-yl-2-(4-trifluoromethylphenoxy)ethanesulfonyl]ethanol]
11 | ≤ 10 | CS(=O)(=O)C[C@@H](Oc1ccc(C(F)(F)F)cc1)[C@@H]1CCNC1 [Example 2-3, (R)-3-[(S)-2-Methanesulfonyl-1-(4-trifluoromethylphenoxy)ethyl]pyrrolidine]
12 | ≤ 100 | CS(=O)(=O)C[C@H](Oc1ccc(OC(F)(F)F)cc1)[C@H]1CCNC1 [Example 2-10, (S)-3-[(R)-2-Methanesulfonyl-1-(4-trifluoromethoxyphenoxy)ethyl]pyrrolidine]
13 | ≤ 100 | CS(=O)(=O)CCC(Oc1ccc(C(F)(F)F)cc1)[C@H]1CCNC1 (single isomer, unassigned) [Example 8-3]
14 | ≤ 100 | CS(=O)(=O)C[C@@H](Oc1ccc([N+](=O)[O-])cc1)[C@H]1CCNC1 [Example 2-5, (S)-3-[(S)-2-Methanesulfonyl-1-(4-nitrophenoxy)ethyl]pyrrolidine]
15 | ≤ 100 | COc1cc([N+](=O)[O-])ccc1O[C@H](CS(C)(=O)=O)[C@@H]1CCNC1 [Example 2-26, (R)-3-[(S)-2-Methanesulfonyl-1-(2-methoxy-4-nitrophenoxy)ethyl]pyrrolidine]
16 | ≤ 10 | O=S(=O)(CCC(Oc1ccc(C(F)(F)F)cc1)[C@H]1CCNC1)c1ccccc1 (stereo partly drawn) [Example 7, (S)-3-[3-Benzenesulfonyl-1-(4-trifluoromethylphenoxy)propyl]pyrrolidine]
17 | ≤ 100 | CS(=O)(=O)C[C@@H](Oc1ccc(C(F)(F)F)nc1)[C@@H]1CCNC1 [Example 5]
18 | ≤ 100 | CS(=O)(=O)CCC(Oc1ccc(C(F)(F)F)cc1)[C@@H]1CCNC1 (single isomer, unassigned) [Example 8-1]

Row | IC50 [nM] | SMILES
19 | ≤ 100 | CS(=O)(=O)C[C@@H](Oc1ccc(Cl)c(C#N)c1)[C@@H]1CCNC1 (stereo in doubt) [Example 2-23, 2-Chloro-5-((R)-2-methanesulfonyl-1-(S)-pyrrolidin-3-ylethoxy)benzonitrile]
20 | ≤ 10 | CS(=O)(=O)C[C@H](Oc1ccc(C(F)(F)F)cc1)[C@@H]1CCNC1 [Example 2-2, (R)-3-[(R)-2-Methanesulfonyl-1-(4-trifluoromethylphenoxy)ethyl]pyrrolidine]
21 | ≤ 100 | COc1cc([N+](=O)[O-])ccc1O[C@@H](CS(C)(=O)=O)[C@@H]1CCNC1 [Example 2-27, (R)-3-[(R)-2-Methanesulfonyl-1-(2-methoxy-4-nitrophenoxy)ethyl]pyrrolidine]
22 | ≤ 10 | CC(C)S(=O)(=O)CCC(Oc1ccc(C(F)(F)F)cc1)[C@H]1CCNC1 (single isomer, unassigned) [Example 8-5]
23 | ≤ 10 | CC(=O)Nc1ccc(S(=O)(=O)C[C@@H](Oc2ccc(C(F)(F)F)cc2)[C@H]2CCNC2)cc1 [Example 2-18, N-{4-[(S)-2-(S)-Pyrrolidin-3-yl-2-(4-trifluoromethylphenoxy)ethanesulfonyl]-phenyl}-acetamide]
24 | ≤ 100 | CS(=O)(=O)C[C@H](Oc1ccc(Cl)cc1)[C@H]1CCNC1 [Example 2-4, (S)-3-[(R)-1-(4-Chlorophenoxy)-2-methanesulfonylethyl]pyrrolidine]
25 | ≤ 10 | COC(=O)CS(=O)(=O)C[C@@H](Oc1ccc(C(F)(F)F)cc1)[C@H]1CCNC1 [Example 2-16, [(S)-(S)-Pyrrolidin-3-yl-(4-trifluoromethylphenoxy)ethanesulfonyl]acetic acid methyl ester]
26 | ≤ 100 | CS(=O)(=O)C[C@H](Oc1ccc([N+](=O)[O-])cc1)[C@H]1CCNC1 [Example 2-6, (S)-3-[(R)-2-Methanesulfonyl-1-(4-nitro-phenoxy)ethyl]pyrrolidine]
27 | ≤ 10 | O=S(=O)(C[C@@H](Oc1ccc(C(F)(F)F)cc1)[C@H]1CCNC1)c1ccccc1 [Example 2-17, (S)-3-[(S)-2-Benzenesulfonyl-1-(4-trifluoromethylphenoxy)ethyl]pyrrolidine]
28 | ≤ 100 | CS(=O)(=O)C[C@H](Oc1ccc(Cl)cn1)[C@H]1CCNC1 (stereo in doubt) [Example 4-2, 5-Chloro-2-((S)-2-methanesulfonyl-1-(R)-pyrrolidin-3-ylethoxy)pyridine]
29 | ≤ 100 | CS(=O)(=O)C[C@@H](Oc1ccc(C(F)(F)F)c(C#N)c1)[C@H]1CCNC1 [Example 2-20, 5-((S)-2-Methanesulfonyl-1-(S)-pyrrolidin-3-ylethoxy)-2-trifluoromethyl-benzonitrile]
30 | ≤ 100 | O=S(=O)(C[C@@H](Oc1ccc(C(F)(F)F)cc1)[C@H]1CCNC1)c1ccncc1 [Example 2-19, 4-[(S)-2-(S)-Pyrrolidin-3-yl-2-(4-trifluoromethylphenoxy)ethanesulfonyl]pyridine]
31 | ≤ 100 | CS(=O)(=O)C[C@@H](Oc1ccc(C(F)(F)F)nc1)[C@H]1CCNC1 [Example 6-2, 5-((S)-2-Methanesulfonyl-1-(S)-pyrrolidin-3-ylethoxy)-2-trifluoromethylpyridine]
32 | ≤ 10 | CS(=O)(=O)C[C@H](Oc1ccc(C(F)(F)F)c(C#N)c1)[C@H]1CCNC1 (stereo in doubt) [Example 2-21, 5-((S)-2-Methanesulfonyl-1-(R)-pyrrolidin-3-ylethoxy)-2-trifluoromethyl-benzonitrile]
33 | ≤ 100 | CS(=O)(=O)C[C@@H](Oc1ccc(Cl)cn1)[C@H]1CCNC1 [Example 4-1, 5-Chloro-2-((S)-2-methanesulfonyl-1-(S)-pyrrolidin-3-ylethoxy)pyridine]
34 | ≤ 100 | CS(=O)(=O)C[C@@H](Oc1ccc(C(F)(F)F)nc1)[C@@H]1CCNC1 (stereo in doubt) [Example 6-1, 5-((R)-2-Methanesulfonyl-1-(S)-pyrrolidin-3-ylethoxy)-2-trifluoromethylpyridine]
35 | ≤ 10 | CC(=O)NCCS(=O)(=O)C[C@@H](Oc1ccc(C(F)(F)F)cc1)[C@H]1CCNC1 [Example 2-14, N-{2-[(S)-2-(S)-Pyrrolidin-3-yl-2-(4-trifluoromethylphenoxy)ethanesulfonyl]-ethyl}-acetamide]

Row | SMILES | IC50 [nM]
36 | CS(=O)(=O)C[C@H](Oc1ccc(Cl)nc1)[C@H]1CCNC1 (stereo in doubt) [Example 6-4, 2-Chloro-5-((S)-2-methanesulfonyl-1-(R)-pyrrolidin-3-ylethoxy)pyridine] | ≤ 100
37 | CS(=O)(=O)C[C@@H](Oc1ccc(Cl)nc1)[C@H]1CCNC1 [Example 6-3, 2-Chloro-5-((S)-2-methanesulfonyl-1-(S)-pyrrolidin-3-ylethoxy)pyridine] | ≤ 100
